Where two headings read alike, the source gives them in different places.
Legend:
Format in all cases: cell-based
conifer = assay: Inventors' observation of initiation frequency in conifer with gibberellins
[1] = tested on: Loblolly pine embryogenic cultures; assay: Growth of Loblolly pine embryogenic cultures from single somatic embryos (tissue diameter, area); details: base Media 1191, ABA 1.3 mg/l, standard atmosphere, five weeks
Protocol: Three previously initiated Loblolly pine embryogenic cultures, each representing a different genotype, were grown in liquid media #1133, used as starting material for embryogenic cultures on various treatment media. Using a dissecting scope, individual stage 2 somatic embryos were extracted and placed on treatment media in the center of individual wells on a well plate. Forty embryos were prepared per treatment media, per genotype. Well plates were wrapped in Parafilm® and cultured under standard conditions at room temperature in the dark for four weeks. Embryogenic cultures derived from the single isolated embryos proliferated and spread over the surface of the culture medium. Spreading cultures were roughly circular in shape, radiating from the central embryo. At the end of four weeks, the growth of each culture was measured by measuring colony diameter using a dissecting scope ocular micrometer. Five treatment media were compared to control media #1043 (Table 21). Three media consisted of #1043 supplemented with paclobutrazol at concentrations of 0.33, 1.0 and 3.0 ppm. A B-vitamin treatment contained biotin at 0.05 ppm and folic acid at 0.5 ppm. […] The pH of media containing four different concentrations of MES was compared to that of a non-buffered control media during eight weeks of embryogenic culture growth. Maintenance cultures were established on treatment media using single isolated somatic embryos. Maintenance cultures were prepared and cultured essentially as described in Example 5. The control media was #1043. (See Table 21). The treatment media consisted of #1043 supplemented with 250, 500, 1000 and 1500 mg/l MES. Media pH was adjusted to 5.7 within all treatments prior to autoclaving, pouring and solidification. Immediately after pouring the media, and thereafter at two week intervals, media pH was measured up to the eighth week of culture growth. At each sampling time, four cultures from each media-genotype treatment were destructively sampled to measure the pH of the media directly underlying the growing embryogenic tissue. This experiment measured the effects of ABA, vitamins, culturing in a closed container, and culturing at increased atmospheric pressure on the growth of embryogenic cultures. Maintenance cultures were prepared on well plates using single somatic embryos, essentially as described in Example 5.

Loblolly pine initiates = assay: Percentage of Loblolly pine maintenance cultures with mass greater than 200 mg at eight weeks; details: control 33.7
Description: “Initiates” will be used to refer to recently initiated embryogenic tissues still on the initiation media. In this experiment, initiates were transferred to a maintenance and multiplication media directly from the initiation media. Five treatments, consisting of various media or culture conditions were imposed on the these cultures. Treatment media were based on media #1191. (See Table 21.) Initiates derived from eight different cone collections of Loblolly pine were transferred to vials containing 5 ml solid media. Seventy five replications were prepared for each treatment.
The transferred initiates were grown in the various treatments for four weeks, and thereafter transferred to vials containing fresh media (of the same composition utilized during the previous four weeks). At the end of a second four-week period, cultures were carefully removed from the vials and weighed. The percentage of cultures that had attained a mass of 200 mg or more was calculated for each treatment.

[2] = tested on: Loblolly pine megagametophytes; assay: Initiation frequency of embryogenic cultures from Loblolly pine megagametophyte explants
Protocol: Explants were megagametophytes isolated from Loblolly pine summer cones when embryos were at approximately stage 2-4. Seeds were. collected from four individual trees of diverse genotypes. Extracted seeds were soaked in running water for 10 minutes, agitated in 10% liquinox supplemented with 1.1 ml/l of Tween 20 for 10 minutes, and rinsed with water for 30 minutes. Seeds were sterilized in a laminar flow hood by agitating in 20% hydrogen peroxide for 10 minutes and rinsing with sterile deionized water. The seed coat, integuments, and nucellus were removed to isolate the megagametophytes. Culturing was performed in 24-well multi-well culture plates with each well having an approximate volume of 3.0 ml. Two ml of media was poured into each well.
Each replication consisted of eight adjacent wells on a multi-well plate, with one megagametophyte per well, providing three replications per multi-well plate. Twelve replications (for a total of 96 explants) were performed per treatment for each cone collection. The well plates were wrapped in Parafilm®, elastic wrap to minimize evaporation and incubated at 22-24° C. under dark conditions for nine weeks. Initiation frequency was scored for each dish by counting the number of explants which had successfully initiated embryogenic cultures.
The media treatments consisted of: (1) a control media #1043 (see Table 21); (2) media #1218, comprising media #1043 supplemented with 250 mg/l MES buffer; (3) media #1043 supplemented with 0.5 ppm folic acid and 0.05 ppm biotin; and (4) media #1218 supplemented with 0.5 ppm folic acid and 0.05 ppm biotin.
A representative procedure is shown for Loblolly pine. Experimental procedure follow similarly for other conifer but differ slightly in the composition of media used. […] Here, however, each treatment-genotype test consisted of ten replications of ten explants.
The cultures were covered and incubated in the dark at 24-26° C. for nine weeks.
Explants from four Loblolly pine cone collections were prepared and cultured as described in Example 2. The media treatments consisted of control media, #1218, which is media #1043 supplemented. with 250 mg/l MES, and four treatment media, which consist of media #1218 supplemented with 0.33, 1.0, 2.0, and 3.0 ppm paclobutrazol, respectively.
Four cone collections with embryos at stages 2-4 were used. Eighty explants from each cone collection on each media were tested. Seeds were removed from cones and soaked in running water for 10 min. Seeds were then agitated in 10% liquinox containing 1.1 ml/l Tween 20 for 10 min., and then rinsed with running tap water for 30 min. After transferring to a sterile hood, seeds were agitated in 20% H2O2 for 10 min., rinsed with sterile nanopure® H2O five times for 5 to 10 min. intervals, and then placed into a sterile petri dish for dissection. Seeds were dissected by splitting the seed coat, removing the integuments and nucellus. The megagametophyte was placed onto the appropriate medium. Each multi-well test plate contained 2 ml of solid media. Plates were incubated in the dark for 8 weeks and then scored.
The control media, media #1253, is described in detail in Table 16. All test media, #1275, #1421, #1422, and #1423 were comprised of the control media with the addition of a gibberellin inhibitor.

[3] = base media #1253, 1.0 ppm paclobutrazol, 0.1062 ppm flurprimidol, 1.58 ppm chlormequat-Cl, 0.16 ppm succinic acid-dh, 8 weeks, dark, control 29.5
[4] = base media #1253, 1.0 ppm paclobutrazol, 0.1062 ppm flurprimidol, 1.58 ppm chlormequat-Cl, 0.16 ppm succinic acid-dh, 8 weeks, dark, control 58.6

## C=C1C[C@]23C[C@@]1(O)CC[C@H]2[C@@]12C=C[C@H](O)[C@@](C)(C(=O)O1)[C@H]2[C@@H]3C(=O)O [gibberellic acid]
conifer
  effect on initiation frequency in conifer: inhibitory effect

## CC1=CC(=O)CC(C)(C)[C@@]1(O)/C=C/C(C)=C\C(=O)O [ABA, abscisic acid]
[1]; control 4.11
  Tissue diameter (mm): 4.61 mm
[1]; control 13.3
  Tissue area (mm^2): 16.7 mm^2
Loblolly pine initiates; Media 1191 + 1.3 mg/l ABA, cultured at 1.5 atm
  % mass >200 mg: 61.2%
Loblolly pine initiates; base Media 1191, ABA 1.3 mg/l, brassinolide 0.1 μM + paclobutrazol 1.0 ppm, MES 250 mg/l, biotin 0.05 ppm, folic acid 0.5 ppm
  % mass >200 mg: 48.6%

## CC(C)C(O)(c1ccc(OC(F)(F)F)cc1)c1cncnc1 (centres unmarked) [Flurprimidol, flurprimidol]
[2]
  Extrusion (%): 59.9%
  Initiation Frequency (%): 36.3%

## C[N+](C)(C)CCCl [Chlormequat-Cl, chlormequat-Cl]
[2]; [3]
  Initiation Frequency (%): 36.8%
[2]; [4]
  Extrusion (%): 61.6%

## CN(C)NC(=O)CCC(=O)O [Succinic Acid-DH, succinic acid-DH]
[2]; [3]
  Initiation Frequency (%): 38.0%
[2]; [4]
  Extrusion (%): 63.3%
